Measurements taken from ChEMBL document CHEMBL3991601, “The target landscape of clinical kinase drugs” (Science, 2017).
Calls of active or inactive are those of the source.

Assays:
[1] = target: T1, Inhibitor of nuclear factor kappa-B kinase subunit epsilon (Homo sapiens, UniProt Q14164)
T1 sequence (Q14164 whole entry): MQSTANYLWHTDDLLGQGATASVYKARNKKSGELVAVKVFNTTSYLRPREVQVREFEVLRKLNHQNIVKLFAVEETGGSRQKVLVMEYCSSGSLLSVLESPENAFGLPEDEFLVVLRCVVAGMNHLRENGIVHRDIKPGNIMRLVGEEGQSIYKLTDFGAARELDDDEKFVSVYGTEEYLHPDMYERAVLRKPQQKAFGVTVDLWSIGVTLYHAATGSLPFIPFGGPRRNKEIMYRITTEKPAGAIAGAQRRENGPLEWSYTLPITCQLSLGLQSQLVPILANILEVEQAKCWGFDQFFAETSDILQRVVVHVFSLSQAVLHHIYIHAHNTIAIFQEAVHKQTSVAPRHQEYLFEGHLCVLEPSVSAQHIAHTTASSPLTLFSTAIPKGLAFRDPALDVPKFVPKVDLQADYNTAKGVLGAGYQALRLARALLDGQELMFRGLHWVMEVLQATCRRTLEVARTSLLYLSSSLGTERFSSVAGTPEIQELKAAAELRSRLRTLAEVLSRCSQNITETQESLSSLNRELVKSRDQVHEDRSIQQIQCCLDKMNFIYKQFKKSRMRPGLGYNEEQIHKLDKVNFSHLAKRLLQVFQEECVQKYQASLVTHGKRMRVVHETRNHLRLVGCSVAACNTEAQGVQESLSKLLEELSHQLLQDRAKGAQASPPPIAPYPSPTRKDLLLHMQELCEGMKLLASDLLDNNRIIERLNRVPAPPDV

[2] = target: Proto-oncogene tyrosine-protein kinase receptor Ret (Homo sapiens, UniProt P07949)
[3] = target: Phosphatidylethanolamine-binding protein 1 (Homo sapiens, UniProt P30086)
[4] = target: Guanine nucleotide-binding protein G(i) subunit alpha-2 (Homo sapiens, UniProt P04899)
Ephrin type-A receptor 7 = Ephrin type-A receptor 7 (Homo sapiens, UniProt Q15375)
Misshapen-like kinase 1 = Misshapen-like kinase 1 (Homo sapiens, UniProt Q8N4C8)
[5] = target: Dual specificity protein kinase CLK2 (Homo sapiens, UniProt P49760)
[6] = target: Serine/threonine-protein kinase MRCK gamma (Homo sapiens, UniProt Q6DT37)
[7] = target: Choline-phosphate cytidylyltransferase A (Homo sapiens, UniProt P49585)
[8] = target: T2, Cyclin-dependent kinase-like 5 (Homo sapiens, UniProt O76039)
T2 sequence (O76039 whole entry): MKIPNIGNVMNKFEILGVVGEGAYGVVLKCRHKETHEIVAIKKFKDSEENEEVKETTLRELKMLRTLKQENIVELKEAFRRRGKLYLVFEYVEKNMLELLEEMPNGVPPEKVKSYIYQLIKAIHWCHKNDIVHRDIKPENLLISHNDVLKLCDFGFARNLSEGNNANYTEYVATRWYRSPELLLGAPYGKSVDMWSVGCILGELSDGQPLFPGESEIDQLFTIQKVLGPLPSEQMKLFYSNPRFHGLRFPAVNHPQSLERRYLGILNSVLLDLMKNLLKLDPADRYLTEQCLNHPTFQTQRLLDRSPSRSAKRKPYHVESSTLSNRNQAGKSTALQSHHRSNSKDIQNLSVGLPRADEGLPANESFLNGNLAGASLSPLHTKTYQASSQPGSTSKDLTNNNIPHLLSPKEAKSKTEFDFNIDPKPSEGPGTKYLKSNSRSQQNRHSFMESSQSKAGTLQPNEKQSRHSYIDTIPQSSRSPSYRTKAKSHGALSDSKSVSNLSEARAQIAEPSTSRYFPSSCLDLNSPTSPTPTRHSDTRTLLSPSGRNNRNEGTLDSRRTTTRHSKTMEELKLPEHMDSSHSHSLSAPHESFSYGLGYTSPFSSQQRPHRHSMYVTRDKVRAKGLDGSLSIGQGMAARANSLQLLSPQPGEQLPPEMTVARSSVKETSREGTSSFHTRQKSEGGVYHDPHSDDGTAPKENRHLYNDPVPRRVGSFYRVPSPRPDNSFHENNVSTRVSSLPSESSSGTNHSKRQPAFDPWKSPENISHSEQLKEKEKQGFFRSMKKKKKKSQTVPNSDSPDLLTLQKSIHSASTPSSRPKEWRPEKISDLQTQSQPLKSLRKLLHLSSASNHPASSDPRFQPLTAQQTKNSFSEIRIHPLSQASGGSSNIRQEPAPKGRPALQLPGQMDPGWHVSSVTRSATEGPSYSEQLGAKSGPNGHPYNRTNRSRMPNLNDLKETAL

[9] = target: Serine/threonine-protein kinase Nek7 (Homo sapiens, UniProt Q8TDX7)
[10] = target: T3, Adenine phosphoribosyltransferase (Homo sapiens, UniProt P07741)
T3 sequence (P07741 whole entry): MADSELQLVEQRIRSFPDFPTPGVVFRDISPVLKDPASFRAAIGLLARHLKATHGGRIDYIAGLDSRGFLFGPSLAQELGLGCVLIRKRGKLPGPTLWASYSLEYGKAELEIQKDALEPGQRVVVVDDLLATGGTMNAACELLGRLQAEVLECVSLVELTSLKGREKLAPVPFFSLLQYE

[11] = target: T4, Phosphatidylinositol 5-phosphate 4-kinase type-2 alpha (Homo sapiens, UniProt P48426)
T4 sequence (P48426 whole entry): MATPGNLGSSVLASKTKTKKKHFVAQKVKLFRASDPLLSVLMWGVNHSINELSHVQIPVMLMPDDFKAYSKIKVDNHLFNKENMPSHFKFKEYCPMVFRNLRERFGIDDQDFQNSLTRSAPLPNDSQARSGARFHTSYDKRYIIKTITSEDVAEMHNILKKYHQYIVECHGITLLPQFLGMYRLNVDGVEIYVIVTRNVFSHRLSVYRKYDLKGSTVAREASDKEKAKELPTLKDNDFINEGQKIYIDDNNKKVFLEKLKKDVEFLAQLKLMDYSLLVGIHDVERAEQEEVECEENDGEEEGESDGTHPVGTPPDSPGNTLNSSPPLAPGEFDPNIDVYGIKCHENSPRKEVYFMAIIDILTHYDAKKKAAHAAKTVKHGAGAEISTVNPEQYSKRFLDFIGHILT

[12] = target: Dual specificity protein kinase CLK3 (Homo sapiens, UniProt P49761); format: subcellular, K-562, COLO 205, SK-N-BE(2) and MV-4-11, Cell lysate; conditions: read-out: Kd apparent
Also: in the data inactive means no Kd found up to 30 µM.

Chain of Misshapen-like kinase 1 (Q8N4C8 whole entry): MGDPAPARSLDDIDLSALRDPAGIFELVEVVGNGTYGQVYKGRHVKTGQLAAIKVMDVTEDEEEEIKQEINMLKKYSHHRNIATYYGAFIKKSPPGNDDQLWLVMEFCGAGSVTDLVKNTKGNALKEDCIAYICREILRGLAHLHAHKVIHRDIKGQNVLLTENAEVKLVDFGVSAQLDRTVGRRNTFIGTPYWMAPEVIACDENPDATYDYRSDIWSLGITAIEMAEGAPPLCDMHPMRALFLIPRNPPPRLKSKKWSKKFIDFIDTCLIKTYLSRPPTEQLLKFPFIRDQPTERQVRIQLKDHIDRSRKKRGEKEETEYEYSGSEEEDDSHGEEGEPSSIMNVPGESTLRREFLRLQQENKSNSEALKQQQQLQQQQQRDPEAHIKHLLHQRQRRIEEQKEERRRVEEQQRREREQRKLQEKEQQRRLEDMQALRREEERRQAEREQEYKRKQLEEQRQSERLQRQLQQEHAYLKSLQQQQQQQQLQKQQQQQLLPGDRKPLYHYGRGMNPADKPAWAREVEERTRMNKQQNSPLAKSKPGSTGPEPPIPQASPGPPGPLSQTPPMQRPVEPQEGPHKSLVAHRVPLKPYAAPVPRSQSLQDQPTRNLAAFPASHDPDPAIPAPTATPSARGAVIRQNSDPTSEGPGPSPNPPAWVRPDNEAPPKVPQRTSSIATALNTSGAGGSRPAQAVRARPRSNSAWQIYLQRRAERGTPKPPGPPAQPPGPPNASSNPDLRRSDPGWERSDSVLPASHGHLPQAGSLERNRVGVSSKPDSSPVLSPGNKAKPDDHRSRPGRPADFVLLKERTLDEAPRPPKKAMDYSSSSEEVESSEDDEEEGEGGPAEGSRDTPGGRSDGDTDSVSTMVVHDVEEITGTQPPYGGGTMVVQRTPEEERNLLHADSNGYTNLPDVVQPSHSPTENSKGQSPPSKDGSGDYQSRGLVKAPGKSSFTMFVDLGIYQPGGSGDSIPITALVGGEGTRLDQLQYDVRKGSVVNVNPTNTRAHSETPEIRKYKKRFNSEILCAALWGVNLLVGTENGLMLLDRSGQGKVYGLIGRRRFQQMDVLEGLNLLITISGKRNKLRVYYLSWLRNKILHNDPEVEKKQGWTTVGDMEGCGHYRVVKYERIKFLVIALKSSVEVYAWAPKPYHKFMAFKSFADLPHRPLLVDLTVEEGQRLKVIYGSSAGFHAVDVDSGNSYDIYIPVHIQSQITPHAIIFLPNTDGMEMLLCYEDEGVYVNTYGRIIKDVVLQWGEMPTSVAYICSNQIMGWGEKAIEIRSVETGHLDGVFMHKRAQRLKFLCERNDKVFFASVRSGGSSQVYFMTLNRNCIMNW
Chain of Ephrin type-A receptor 7 (Q15375 whole entry): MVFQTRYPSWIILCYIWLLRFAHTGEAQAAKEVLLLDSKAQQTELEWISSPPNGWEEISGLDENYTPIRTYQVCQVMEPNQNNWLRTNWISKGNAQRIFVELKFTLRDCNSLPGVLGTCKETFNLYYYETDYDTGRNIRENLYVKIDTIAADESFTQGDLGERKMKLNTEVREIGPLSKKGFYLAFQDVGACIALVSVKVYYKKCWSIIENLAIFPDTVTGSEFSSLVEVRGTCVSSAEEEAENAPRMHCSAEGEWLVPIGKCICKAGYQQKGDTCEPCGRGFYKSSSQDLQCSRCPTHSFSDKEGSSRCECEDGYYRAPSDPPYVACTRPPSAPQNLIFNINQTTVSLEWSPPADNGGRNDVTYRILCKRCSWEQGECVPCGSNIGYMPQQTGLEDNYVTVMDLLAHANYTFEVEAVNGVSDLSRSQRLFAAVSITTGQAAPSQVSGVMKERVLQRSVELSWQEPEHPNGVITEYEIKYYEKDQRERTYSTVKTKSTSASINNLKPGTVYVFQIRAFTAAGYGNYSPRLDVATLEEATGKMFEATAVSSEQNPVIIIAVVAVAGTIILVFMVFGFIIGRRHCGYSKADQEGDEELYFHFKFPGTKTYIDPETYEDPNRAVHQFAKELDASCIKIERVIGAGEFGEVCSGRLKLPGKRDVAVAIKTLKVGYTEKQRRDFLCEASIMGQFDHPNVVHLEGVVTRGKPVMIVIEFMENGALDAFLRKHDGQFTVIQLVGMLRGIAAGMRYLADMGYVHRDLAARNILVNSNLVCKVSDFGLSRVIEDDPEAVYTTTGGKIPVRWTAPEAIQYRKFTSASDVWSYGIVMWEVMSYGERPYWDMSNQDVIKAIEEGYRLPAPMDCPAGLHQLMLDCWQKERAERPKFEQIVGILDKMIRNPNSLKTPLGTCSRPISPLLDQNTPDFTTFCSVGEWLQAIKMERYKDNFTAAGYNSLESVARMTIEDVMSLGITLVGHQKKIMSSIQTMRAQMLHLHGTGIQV
Chain of Dual specificity protein kinase CLK2 (P49760 whole entry): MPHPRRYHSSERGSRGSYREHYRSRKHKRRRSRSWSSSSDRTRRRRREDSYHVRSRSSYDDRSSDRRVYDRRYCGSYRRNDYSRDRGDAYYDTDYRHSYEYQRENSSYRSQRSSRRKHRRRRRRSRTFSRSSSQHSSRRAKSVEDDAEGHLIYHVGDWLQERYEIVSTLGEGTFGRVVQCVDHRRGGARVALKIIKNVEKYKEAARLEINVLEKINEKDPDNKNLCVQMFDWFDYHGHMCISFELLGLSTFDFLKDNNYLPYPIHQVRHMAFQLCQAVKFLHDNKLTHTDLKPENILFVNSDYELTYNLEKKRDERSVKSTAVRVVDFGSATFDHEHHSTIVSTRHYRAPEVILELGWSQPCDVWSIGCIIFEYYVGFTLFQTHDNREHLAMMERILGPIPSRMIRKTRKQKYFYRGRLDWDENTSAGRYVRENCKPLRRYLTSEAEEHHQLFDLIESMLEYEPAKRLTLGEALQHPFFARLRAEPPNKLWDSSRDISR
Chain of Choline-phosphate cytidylyltransferase A (P49585 whole entry): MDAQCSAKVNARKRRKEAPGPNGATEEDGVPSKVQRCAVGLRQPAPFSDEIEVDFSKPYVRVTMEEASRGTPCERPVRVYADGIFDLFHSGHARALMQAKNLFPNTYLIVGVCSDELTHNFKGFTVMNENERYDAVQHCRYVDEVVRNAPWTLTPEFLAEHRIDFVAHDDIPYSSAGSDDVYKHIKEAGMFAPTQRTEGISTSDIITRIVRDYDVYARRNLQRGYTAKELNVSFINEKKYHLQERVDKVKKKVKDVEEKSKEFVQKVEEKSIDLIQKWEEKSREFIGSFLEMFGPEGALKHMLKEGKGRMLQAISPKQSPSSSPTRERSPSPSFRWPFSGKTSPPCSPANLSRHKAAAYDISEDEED
Chain of Phosphatidylethanolamine-binding protein 1 (P30086 whole entry): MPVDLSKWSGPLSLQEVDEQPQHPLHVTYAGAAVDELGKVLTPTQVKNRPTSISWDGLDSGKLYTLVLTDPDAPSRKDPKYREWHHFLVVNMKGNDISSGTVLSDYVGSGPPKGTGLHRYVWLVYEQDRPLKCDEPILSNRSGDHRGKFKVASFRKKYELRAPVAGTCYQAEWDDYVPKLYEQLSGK
Chain of Serine/threonine-protein kinase MRCK gamma (Q6DT37 whole entry): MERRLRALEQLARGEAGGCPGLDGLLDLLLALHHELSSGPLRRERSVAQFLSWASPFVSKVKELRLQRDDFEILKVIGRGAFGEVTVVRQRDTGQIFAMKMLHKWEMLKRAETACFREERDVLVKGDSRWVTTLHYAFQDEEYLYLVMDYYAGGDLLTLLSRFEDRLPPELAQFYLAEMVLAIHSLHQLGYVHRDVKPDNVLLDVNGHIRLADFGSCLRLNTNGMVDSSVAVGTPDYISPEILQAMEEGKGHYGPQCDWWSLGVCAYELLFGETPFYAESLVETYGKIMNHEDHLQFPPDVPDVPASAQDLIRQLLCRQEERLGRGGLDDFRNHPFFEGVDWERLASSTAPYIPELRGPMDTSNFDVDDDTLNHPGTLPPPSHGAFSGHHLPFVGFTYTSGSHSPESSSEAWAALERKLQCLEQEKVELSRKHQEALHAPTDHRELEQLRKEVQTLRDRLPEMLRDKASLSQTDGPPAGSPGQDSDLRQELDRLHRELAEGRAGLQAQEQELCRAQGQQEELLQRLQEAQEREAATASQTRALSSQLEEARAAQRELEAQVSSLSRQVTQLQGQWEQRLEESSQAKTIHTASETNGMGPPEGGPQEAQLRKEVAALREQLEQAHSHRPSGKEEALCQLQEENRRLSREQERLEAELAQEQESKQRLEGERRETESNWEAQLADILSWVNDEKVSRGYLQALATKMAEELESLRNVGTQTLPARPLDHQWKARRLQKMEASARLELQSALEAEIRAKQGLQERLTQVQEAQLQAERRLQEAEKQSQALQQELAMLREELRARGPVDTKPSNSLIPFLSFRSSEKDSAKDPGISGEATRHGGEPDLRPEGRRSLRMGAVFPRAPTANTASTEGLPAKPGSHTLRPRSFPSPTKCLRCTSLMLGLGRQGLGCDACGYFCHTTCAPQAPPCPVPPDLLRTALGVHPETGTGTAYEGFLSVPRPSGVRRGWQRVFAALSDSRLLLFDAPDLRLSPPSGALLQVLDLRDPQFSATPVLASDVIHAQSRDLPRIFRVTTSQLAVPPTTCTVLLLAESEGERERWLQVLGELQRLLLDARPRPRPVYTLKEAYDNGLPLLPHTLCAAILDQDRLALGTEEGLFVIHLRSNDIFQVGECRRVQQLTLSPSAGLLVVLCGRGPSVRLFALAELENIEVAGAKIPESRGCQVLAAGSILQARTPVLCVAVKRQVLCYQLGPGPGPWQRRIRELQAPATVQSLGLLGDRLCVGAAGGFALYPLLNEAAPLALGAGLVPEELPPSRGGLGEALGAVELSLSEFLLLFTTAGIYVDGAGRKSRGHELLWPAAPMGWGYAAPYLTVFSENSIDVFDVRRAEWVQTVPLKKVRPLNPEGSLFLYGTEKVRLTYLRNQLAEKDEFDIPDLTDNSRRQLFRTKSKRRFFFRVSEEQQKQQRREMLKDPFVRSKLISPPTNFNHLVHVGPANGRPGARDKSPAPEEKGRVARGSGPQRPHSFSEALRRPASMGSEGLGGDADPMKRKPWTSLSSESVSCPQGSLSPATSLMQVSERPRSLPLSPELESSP

Kd [1]	Kd [2]	Kd [3]	Kd [4]	Kd (Ephrin type-A receptor 7)	Kd (Misshapen-like kinase 1)	Kd [5]	Kd [6]	Kd [7]	Kd [8]	Kd [9]	Kd [10]	Kd [11]	Kd [12]	Structure (SMILES)
> 30 µM (inactive)	> 30 µM (inactive)	> 30 µM (inactive)	> 30 µM (inactive)	> 30 µM (inactive)	> 30 µM (inactive)	> 30 µM (inactive)	> 30 µM (inactive)	> 30 µM (inactive)	> 30 µM (inactive)					COc1cc(N2CCC(N3CCN(C)CC3)CC2)ccc1Nc1ncnc(Nc2ccccc2S(=O)(=O)C(C)C)n1 [ASP-3026]
> 30 µM (inactive)	3.22 µM (active)		> 30 µM (inactive)	> 30 µM (inactive)	> 30 µM (inactive)	> 30 µM (inactive)	> 30 µM (inactive)	> 30 µM (inactive)	> 30 µM (inactive)	> 30 µM (inactive)	> 30 µM (inactive)	> 30 µM (inactive)		CN1CCC(CNc2ccc3ncc(-c4cccc(OC(F)(F)F)c4)n3n2)CC1 [SGI-1776]
> 30 µM (inactive)	> 30 µM (inactive)			> 30 µM (inactive)	> 30 µM (inactive)	> 30 µM (inactive)	> 30 µM (inactive)		> 30 µM (inactive)		> 30 µM (inactive)			O=c1sn(-c2cccc3ccccc23)c(=O)n1Cc1ccccc1 [TIDEGLUSIB]
	> 30 µM (inactive)	> 30 µM (inactive)	> 30 µM (inactive)	> 30 µM (inactive)	> 30 µM (inactive)	> 30 µM (inactive)	> 30 µM (inactive)		> 30 µM (inactive)		> 30 µM (inactive)	> 30 µM (inactive)		CC[C@H](Nc1ncnc2[nH]cnc12)c1nc2cccc(F)c2c(=O)n1-c1ccccc1 [IDELALISIB]
		> 30 µM (inactive)	> 30 µM (inactive)	> 30 µM (inactive)	> 30 µM (inactive)		> 30 µM (inactive)	> 30 µM (inactive)	> 30 µM (inactive)	> 30 µM (inactive)	> 30 µM (inactive)	> 30 µM (inactive)		CCc1cnn2c(NCc3ccc[n+]([O-])c3)cc(N3CCCC[C@H]3CCO)nc12 [DINACICLIB]
> 30 µM (inactive)	> 30 µM (inactive)	> 30 µM (inactive)	> 30 µM (inactive)	> 30 µM (inactive)	> 30 µM (inactive)		> 30 µM (inactive)		> 30 µM (inactive)		> 30 µM (inactive)	> 30 µM (inactive)		Cn1cc(-c2ccc(F)c(C(F)(F)F)c2)nc1C1CCN(c2ncnc3[nH]ncc23)CC1 [LY-2584702]
> 30 µM (inactive)		0.003 µM	> 30 µM (inactive)		> 30 µM (inactive)	> 30 µM (inactive)	> 30 µM (inactive)	> 30 µM (inactive)	> 30 µM (inactive)	> 30 µM (inactive)	> 30 µM (inactive)	> 30 µM (inactive)		COc1cc2nccc(Oc3ccc(NC(=O)Nc4cc(C)on4)c(Cl)c3)c2cc1OC [TIVOZANIB]
> 30 µM (inactive)	> 30 µM (inactive)	> 30 µM (inactive)	> 30 µM (inactive)	> 30 µM (inactive)	> 30 µM (inactive)	> 30 µM (inactive)	> 30 µM (inactive)			> 30 µM (inactive)	> 30 µM (inactive)	> 30 µM (inactive)		COc1ccc(-c2ccc3c(N4CCOC[C@@H]4C)nc(N4CCOC[C@@H]4C)nc3n2)cc1CO [AZD-8055]
> 30 µM (inactive)	> 30 µM (inactive)	> 30 µM (inactive)	> 30 µM (inactive)	> 30 µM (inactive)	> 30 µM (inactive)		> 30 µM (inactive)		2.04 µM	> 30 µM (inactive)	> 30 µM (inactive)	> 30 µM (inactive)		CNC(=O)c1ccc(-c2cnc3ncc(Cc4ccc5ncccc5c4)n3n2)cc1F [CAPMATINIB]
> 30 µM (inactive)	0.029 µM (active)			> 30 µM (inactive)		> 30 µM (inactive)	> 30 µM (inactive)		> 30 µM (inactive)		> 30 µM (inactive)	> 30 µM (inactive)	> 30 µM (inactive)	COc1cc(CCc2cc(NC(=O)c3ccc(N4C[C@@H](C)N[C@@H](C)C4)cc3)n[nH]2)cc(OC)c1 [AZD-4547]

Structure (SMILES)	Kd [1]	Kd [2]	Kd [3]	Kd [4]	Kd (Ephrin type-A receptor 7)	Kd (Misshapen-like kinase 1)	Kd [5]	Kd [6]	Kd [7]	Kd [8]	Kd [9]	Kd [10]	Kd [11]	Kd [12]
O=C(c1ccc(F)c(F)c1Nc1ccc(I)cc1F)N1CC(O)([C@@H]2CCCCN2)C1 [COBIMETINIB]	> 30 µM (inactive)	> 30 µM (inactive)	> 30 µM (inactive)		> 30 µM (inactive)	> 30 µM (inactive)	> 30 µM (inactive)		> 30 µM (inactive)	> 30 µM (inactive)	> 30 µM (inactive)		> 30 µM (inactive)	
COC(=O)[C@@]1(O)C[C@H]2O[C@]1(C)n1c3ccccc3c3c4c(c5c6ccccc6n2c5c31)C(=O)NC4 [K-252A]	0.494 µM (active)				> 30 µM (inactive)	> 30 µM (inactive)	3.81 µM (active)	> 30 µM (inactive)		> 30 µM (inactive)	0.003 µM		> 30 µM (inactive)	
Cc1ccc(-n2nc(C(C)(C)C)cc2NC(=O)NCc2cc(F)ccc2Oc2ccc3c(cnn3CCO)c2)cc1 [PEXMETINIB]	> 30 µM (inactive)	1.2 µM (active)	> 30 µM (inactive)	> 30 µM (inactive)	3.31 µM (active)	> 30 µM (inactive)	> 30 µM (inactive)	> 30 µM (inactive)	> 30 µM (inactive)		> 30 µM (inactive)	> 30 µM (inactive)	> 30 µM (inactive)	
